Legend:
[1] = Liquid, Vibrating tube method
[2] = xn = mol fraction of the nth substance listed; conditions: Liquid, Vibrating tube method, x1 = 1

C=C(C)[C@H]1CC=C(C)CC1 [(R)-1-methyl-4-(1-methylethenyl)cyclohexene]
mass density [kg/m3], [1]
Conditions	283.15 K	298.15 K	313.15 K	328.15 K	343.15 K	358.15 K
20000 kPa	862	851.5	841	830.5	820.1	810.2
25000 kPa	864.9	854.5	844.2	833.8	823.7	813.9
30000 kPa	867.7	857.6	847.2	837.2	827.3	817.6
35000 kPa	870.4	860.9	850.3	840.4	831.1	821.3
40000 kPa	873.3	863.4	853.3	843.8	834.6	824.8

C=C(C)[C@H]1CC=C(C)CC1 [(R)-1-methyl-4-(1-methylethenyl)cyclohexene] + CC1=CC[C@H]2C[C@@H]1C2(C)C
mass density [kg/m3], [2]
Conditions	283.15 K	298.15 K	313.15 K	328.15 K	343.15 K	358.15 K
20000 kPa	862	851.5	841	830.5	820.1	810.2
25000 kPa	864.9	854.5	844.2	833.8	823.7	813.9
30000 kPa	867.7	857.6	847.2	837.2	827.3	817.6
35000 kPa	870.4	860.9	850.3	840.4	831.1	821.3
40000 kPa	873.3	863.4	853.3	843.8	834.6	824.8

CC1=CC[C@H]2C[C@@H]1C2(C)C [(S)-2-pinene]
mass density [kg/m3], [1]
Conditions	283.15 K	298.15 K	313.15 K	328.15 K	343.15 K	358.15 K
20000 kPa	880	868.8	858	846.7	835.9	825
25000 kPa	883.2	872.1	861.3	850.4	839.7	829.2
30000 kPa	886.3	875.3	864.7	854	843.8	833.3
35000 kPa	889.4	878.6	867.9	857.5	847.7	837.4
40000 kPa	892.5	881.9	871.3	861.1	851.4	841.5

From the NIST ThermoML archive (doi:10.1021/je1009619)
